# Assays:
# [1] = system: ssGPR55-K80A and ssGPR55-Q87A; assay: LPI-induced MAPK activation in shGPR55-HeLa clones expressing ssGPR55 mutants; format: cell-based, human; details: 10 µM 18:0 LPI
# Excerpt: The construct of haemagglutinin (HA)-tagged human GPR55 in pcDNA3 (HA-GPR55) was a gift from Prof. K. Mackie, Indiana University, Bloomington, IN, USA [39], while the construct ss-3 × HA-GPR55 in pcDNA3.1 (ssGPR55) with a triple HA tag at the N-terminus and an optimised signal sequence (ss, derived from amino acids 1–33 of the human growth hormone: […]) for efficient surface expression was from Prof. A. Irving, Dundee University, UK [40]. For both constructs, mutations were introduced by site-directed mutagenesis using QuickChange kits (Stratagene, La Jolla, CA, USA), according to the manufacturer instructions. The primers for the K80A mutation were 5′-[…]-3′ and 5′-[…]-3′ (Tm, 70.6 °C), and for Q87A were 5′-[…]-3′ and 5′-[…]-3′ (Tm, 73.1 °C).
# HeLa cells were plated at 1.5 × 10^5 cells/well in six-well plates in their growth medium without antibiotics. Twenty-four hours later, the cells were transfected with 2.5 µg/well pcDNA3.1, or the mutants ssGPR55-K80A, ssGPR55-Q87A, or 1.25 µg/well (complemented with 1.25 µg/well empty vector) ssGPR55, using Lipofectamine 2000, according to the manufacturer instructions. The different cDNA amounts were necessary to reach equivalent plasma-membrane expression of the receptors, as the mutants were expressed at lower levels, as verified by FACS analyses, and in line with previous reports.
# For stable interference of GPR55, HeLa cells were plated at 1.5 × 10^5 cells/well in six-well plates in growth medium without antibiotics, and 24 h later, the cells were transfected with 1.7 µg/well OmicsLink short hairpin (sh)RNA expression clone CSHCTR001-CU6 (shCTRL) or clone HSH022476-3-CU6 (shGPR55) from GeneCopoeia (Rockville, MD, USA), using Lipofectamine 2000, according the manufacturer instructions. Forty-eight hours after transfection, HeLa clones stably expressing shRNAs were selected in growth medium containing 0.3 µg/mL puromycin. The efficiency of interference was monitored by real-time PCR using the primers listed in the Additional file 1: Table S1. HPRT1 was followed as a housekeeping gene. […]
# [2] = system: Gpr55 mRNA in RAW264.7 cells; assay: Modulation of Gpr55 mRNA levels by receptor ligands in RANKL-treated RAW264.7 cells; format: cell-based, murine; details: 72 h; 0.5 μM ML-191, 0.5 μM CBD, 1 μM soybean LPI; versus RANKL alone
# Protocol: Total RNA was extracted using RNeasy isolation kits, cDNAs were obtained using QuantiTect Reverse Transcription kits, and real-time PCRs were performed with QuantiTect SYBR Green PCR kits (all from Qiagen, Hilden, Germany), according to the manufacturer instructions. The primers used for the real-time PCRs and their annealing temperatures are listed in the Additional file 1: Table S1. Human hypoxanthine phosphoribosyltransferase 1 (HPRT1) or murine β2-microglobulin were followed as housekeeping genes. The real-time PCR programme consisted of an initial 15 min at 95 °C, and then 45 cycles as follows: 94 °C for 15 s, annealing temperature of each primer for 30 s, and 72 °C for 30 s. The real-time PCR machine used was a LightCycler 480 Instrument II (Roche, Indianapolis, IN, USA).
# For the osteoclastogenesis in-vitro assay, RAW264.7 cells were plated in differentiation medium (α-MEM with 10% heat-inactivated FBS, 2 mM L-glutamine, 100 U/mL penicillin, and 100 ug/mL streptomycin) at a density of 5 × 10^3 cells/well in 24-well plates on coverslips for morphological analysis, or at 2 × 10^4 cells/well in six-well plates for RNA extraction. Twenty-four hours later and every 48 h, the medium was replaced and the cells were treated with 15–30 ng/mL RANKL with DMSO and/or PBS as carriers, or with GPR55 antagonists/ agonists (0.5 µM ML-191, 30 µM O1918, 0.5 µM CBD, 0.5 μM CID16020046 1 µM soybean LPI, 1 μM ML-184), or with the peptides (150 nM peptide-P1; or the irrelevant peptide, Irr_P). Twenty-four hours after the last addition, the cells were fixed with 4% paraformaldehyde for morphological analyses or harvested for RNA extraction (see above).
substance,measurement,setting,value
lysophosphatidylinositol [LPI],LPI-stimulated activation of p38,[1],no LPI-stimulated activation of p38
same,"LPI-stimulated activation of ERK2, 5 min",[1]; 5 min,no response at 5 min
same,"LPI-stimulated activation of ERK2, 10 min",[1]; 10 min,reduced response at 10 min
same,further enhancement of RANKL-stimulated Gpr55 mRNA levels,[2],0.5 -fold

# — publication PMC8073907, “Peptide targeting of lysophosphatidylinositol-sensing GPR55 for osteoclastogenesis tuning” (Cell Communication and Signaling : CCS, 2021)
